Experimental data: US11661437B2, “Steroid derivative regulators, method for preparing the same, and uses thereof” (priority 2018, dated 2023)

Key:
GABA-A receptor = assay: 35S-TBPS binding assay on rat cerebral cortex cell membrane; design: species or system Sprague-Dawley rat; conditions: 2 nM 35S-TBPS, GABA added, read-out: 35S-TBPS bindng test, IC50 on inhibiting the TBPS binding activity
How it was run: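 Male Sprague-Dawley rat cortical membranes in PBS were preincubated 5 min at 25 °C with compound (8-point 3-fold series […], 1% DMSO), then with GABA ([…]). 2 nM 35S-TBPS was added for 20 h at 4 °C, followed by GF/C filtration and scintillation counting. % inhibition was normalised to DMSO and 10 μM reference controls, with IC50 from a 4-parameter fit.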

[1] = Pharmacokinetic assay in Balb/c mice (plasma and brain tissue); type: in vivo; conditions: male, Balb/c, mouse, in vivo, po, 5 mg/kg; for AUC(0-t): Area under curve AUC0-t; for AUC(0-inf): Area under curve AUC0-∞; for half-life: Half-life t1/2; for MRT: Mean residence time MRT; for Tmax: Peak time tmax; for Cmax: Plasma concentration Cmax
Procedure: Balb/c mice were used as test animals. The pharmacokinetic behavior in mice (plasma and brain tissue) of the compounds of Example 2, Example 5, Example 7, Example 12, Example 18, Example 23, Example 26, Example 38, Example 41, Example 50, Example 51 and Example 66 orally administrated at a dose of 5 mg/kg was studied.
Each group had 24 male Balb/c mice. After an overnight fast, Balb/c mice were administrated p.o. with the test compound at an administration dose of 5 mg/kg and an administration volume of 10 mL/kg.
0.2 ml of blood was taken from the heart before administration and at 0, 0.5, 1, 2, 4, 6, 8 and 24 hours after administration. The samples were stored in EDTA-K2 tubes, and centrifuged for 6 minutes at 4° C., 6000 rpm to separate the plasma. The plasma samples were stored at −80° C. The mice were sacrificed with CO2, and the whole brain tissue was taken out, weighed, placed in a 2 mL centrifuge tube and stored at −80° C.
1) 160 μL of acetonitrile was added to 40 μL of the plasma sample for precipitation, and then the mixture was centrifuged for 5-20 minutes at 3500×g.
2) 90 μL of acetonitrile containing the internal standard (100 ng/mL) was added to 30 μL of the plasma and brain homogenate samples for precipitation, and then the mixture was centrifuged for 8 minutes at 13000 rpm.
3) 70 μL of the treated supernatant was taken and added to 70 μL of water, and mixed by vortex for 10 minutes. 20 μL of the mixture was taken to analyze the concentration of the test compound by LC/MS/MS. LC/MS/MS analysis instrument: AB Sciex API 4000 Qtrap.
2.6 Liquid Chromatography Analysis • Liquid chromatography condition: Shimadzu LC-20AD pump. • Chromatographic column: Agilent ZORBAX XDB-C18 (50×2.1 mm, 3.5 μm); Mobile phase: Eluent A was 0.1% formic acid in water, and Eluent B was acetonitrile. • Flow rate: 0.4 mL/min • Elution time: 0-4.0 minutes the eluent is as follows:
The main parameters of pharmacokinetics were calculated by WinNonlin 6.1.

ICR mice = assay: In vivo pharmacodynamic test in the forced swimming model in mice; conditions: for Mean (immobility, %) / Mean (immobility, s): 10 mpk p.o.; for Mean (immobility, %): floating time percentage = 100*floating time/240 s; for Mean (immobility, s): latter four minutes of 6 min swim
Procedure: The antidepressant effect of the compound was evaluated by the forced swimming model in mice.
Male ICR mice (25-35 g) were adapted in the test environment for 3 days before the forced swimming test.
According to the test design, the mice were randomly grouped on the day before the test according to body weight, with 12 mice in each group. Before the test, the compounds of each example were administrated intragastrically according to the Tmax thereof in the brain in mice pharmacokinetic test as follows:
1) Model group (0.5% CMC-Na+1% Tween 80 solution, p.o., 10 mL/kg);
2) Compounds of Example 2, Example 5, Example 7, Example 18, Example 23, Example 26 and Example 50 (10 mg/kg, p.o., 10 mL/kg).
When being administrated, the compounds of each example were suspended in 0.5% CMC-Na-1% Tween 80 solution to the desired concentration.
0.5-1 hour after administration, ICR mice were placed in a forced swimming device (transparent glass drum (water depth 18 cm, water temperature 25-26° C.), one mouse per tank) and forced to swim for 6 minutes. The forced swimming device recorded the floating time of the ICR mice during the entire 6 minutes, and the data of the latter four minutes were used for data analysis. The mice were taken out immediately after the swimming test, wiped dry and put back in their original cages.
Note: The criterion for determining the immobility time is that the mouse stops struggling in water and floats, and there are only slight limb movements to keep the head floating on the water.
3.4 Data Analysis Floating time percentage=100*floating time/240 s.

SMILES | IC50 (GABA-A receptor) | Area under curve AUC0-t [1] | Area under curve AUC0-∞ [1] | Half-life t1/2 [1] | Mean residence time MRT [1] | Plasma concentration Cmax [1] | AUC(0-t) [1] | AUC(0-inf) [1] | half-life [1] | MRT [1] | Tmax [1] | Cmax [1] | Mean (immobility, %) (ICR mice) | Mean (immobility, s) (ICR mice) | immobility time during the latter four minutes compared with that of the model group (ICR mice; 10 mg/kg p.o.)
C[C@@]1(O)CC[C@@]2(F)[C@H](CC[C@H]3[C@@H]4CC[C@H](C(=O)Cn5nc6ccc(F)cc6n5)[C@@]4(C)CC[C@@H]32)C1 [Example 18, 2-(5-Fluoro-2H-benzo[d][1,2,3]triazol-2-yl)-1-((3R,5R,8S,9S,10R,13S,14S,17S)-10-fluoro-3-hydroxy-3,13-dimethylhexadecahydro-1H-cyclopenta[a]phenanthren-17-yl)ethan-1-one] | 10 nM | 2141.1 ng·h/mL | 2186.8 ng·h/mL | 4.7 h | 6.1 h | 281.7 ng/mL | 1520 ng·h/mL | 1540 ng·h/mL | 252 min | 5.5 h | 1 h | 236 ng/mL | 61.19% | 146.86 s | –
C[C@@]1(O)CC[C@]2(F)C3CC[C@]4(C)[C@@H](C(=O)CNc5ccc(F)cc5F)CC[C@H]4[C@@H]3CC[C@@H]2C1 (stereo partly drawn) [Example 26, 2-((2,4-Difluorophenyl)amino)-1-((3R,5R,8S,10R,13S,14S,17S)-10-fluoro-3-hydroxy-3,13-dimethylhexadecahydro-1H-cyclopenta[a]phenanthren-17-yl)ethan-1-one] | 10.5 nM | 722.9 ng·h/mL | 828.4 ng·h/mL | 2.06 h | 3.84 h | 172.3 ng/mL | 767 ng·h/mL | 772 ng·h/mL | 154 min | 4.08 h | 0.5 h | 232 ng/mL | 53.46% | 128.30 s | –
C[C@@]1(O)CC[C@@]2(F)[C@H](CC[C@H]3[C@@H]4CC[C@H](C(=O)Cn5nc(C#N)cc5C#N)[C@@]4(C)CC[C@@H]32)C1 [Example 50, 1-(2-((3R,5R,8S,9S,10R,13S,14S,17S)-10-Fluoro-3-hydroxy-3,13-dimethylhexadecahydro-1H-cyclopenta[a]phenanthren-17-yl)-2-oxoethyl)-1H-pyrazole-3,5-dicarbonitrile] | 12.5 nM | – | – | 1.10 h | 2.48 h | – | – | – | 66.6 min | 2.36 h | 1 h | – | 42.11% | 101.07 s | very significantly different
